From EP3349734B1, “USE OF SOLUBLE AND INSOLUBLE FRACTIONS OF A CYCLODEXTRIN POLYMER AND OF MIXTURES THEREOF AS AN EXCIPIENT IN A TABLET” (Université de Lille, priority 2015, dated 2017)

Key:
Assay type in all cases: physicochemical
[1] = Dissolution test of ibuprofène (Sotax USP 4, HCl pH = 1); conditions: in 45 minutes, 500 mL HCl pH = 1, 37°C, 50 mL/min
Text: (§1) La dissolution de principes actifs à partir de comprimés selon l'invention, i.e. les comprimés formés à partir de fractions solubles de polymères de cyclodextrine, a été comparée à la dissolution de principes actifs à partir de comprimés formés à partir de cyclodextrines sous forme de monomères ainsi qu'à la dissolution du principe actif non compris dans une forme galénique.
(§2) La poudre contenant les cyclodextrines ou les fractions solubles de polymère de cyclodextrine et le principe actif a été obtenue par granulation humide comme détaillé dans l'exemple 4. Le ratio CD ou PolyCD / ibuprofène était de 90/10 et le ratio CD ou PolyCD / Piroxicam était de 60 / 40. Les essais de dissolution ont été réalisés dans un système Sotax® USP 4 (50 mL/min, 37°C) muni d'un détecteur UV. L'ibuprofène et le piroxicam ont été détectés à une longueur d'onde de 264 et 334 nm, respectivement.
(§3) Le milieu de dissolution est composé de 500 mL de HCl (pH = 1) dans le cas de l'ibuprofène, et de 500 mL de HCl (pH = 4) dans le cas du piroxicam. Des échantillons ont été prélevés toutes les 2 minutes pendant 1 h et analysés par un spectromètre UV-VIS (Perkin Elmer Lambda 25). Les courbes sont obtenues en pourcentage en divisant la quantité de principe actif libérée au cours du temps par la quantité de principe actif initiale.

[2] = Dissolution test of piroxicam (Sotax USP 4, HCl pH = 4); conditions: in 45 minutes; 500 mL HCl pH = 4, 37°C, 50 mL/min
Text: as §1, §2, §3

[3] = Glass transition by DSC (Gordon-Taylor extrapolation of mannitol mixtures; quenched melt); conditions: after melt-quench at 210°C, heating 5°C/min
Description: Les expériences de calorimétrie ont été réalisées avec la DSC Q200 de chez TA Instruments. Les échantillons ont été placés dans des creusets en aluminium ouverts et balayés avec de l'azote gazeux pur. L'instrument a été étalonné en température et en enthalpie en utilisant l'indium comme standard. […]
La figure 12 montre les thermogrammes des mélanges poly-βCD / mannitol enregistrés au chauffage (5°C/min). Ils présentent tous un saut de chaleur spécifique (Cp) caractéristique d'une transition vitreuse. Ce saut est unique, ce qui indique que les mélanges sont dans un état physique amorphe homogène. La température de transition vitreuse Tg (prise au point d'inflexion du saut) diminue lorsque la concentration en mannitol augmente ce qui montre l'effet plastifiant du mannitol sur la poly-βCD. L'évolution du Tg du mélange ave la concentration en mannitol (X) suit une loi de Gordon Taylor dont l'extrapolation à X = 0 permet d'estimer le Tg de la poly-βCD pure. On trouve Tg # 400°C. La transition vitreuse de la poly-βCD se situe donc à très haute température et bien au-dessus de sa température de dégradation thermique. Elle ne peut donc pas être observée directement en DSC. Une étude analogue menée avec la poly-MebCD révèle un comportement identique et une transition vitreuse proche de Tg = 317°C. […]

[4] = Phase-solubility diagram of piroxicam with cyclodextrins or soluble polymer fractions; conditions: calculated from slope and So of the solubility diagram
Description: (§4) Les diagrammes de solubilité de plusieurs principes actifs ont été effectués en présence de cyclodextrines et de fractions solubles de polymères de cyclodextrine mentionnés à l'exemple 1.
(§5) Des solutions de concentration croissante de cyclodextrines et fractions solubles de polymères de cyclodextrine ont été préparées dans de l'eau ultrapure [0-70 g/L]. 10 mL de chacune des solutions ont été mis en présence d'un excès du principe actif (20 mg) sous agitation pendant 24 heures à température ambiante. Les solutions ont ensuite été filtrées avec une membrane en cellulose et en Nylon (0,45 µm; VWR International, USA) respectivement pour l'Ibuprofène et le Piroxicam. L'ibuprofène a été dosé par HPLC (Shimadzu LC-2010 HT Liquid Chromatography), la phase mobile de l'ibuprofène est un mélange acétonitrile/eau (60:40) avec un pH de 2,25, une colonne C18 a été utilisée. Le piroxicam a été dosé par spectrophotométrie UV-Vis à 356 nm (UV 1800 Shimadzu).
(§6) La constante de stabilité (K1:1) est utilisée pour comparer l'affinité de principes actifs pour différentes cyclodextrines ou dérivés. La solubilité totale de médicament (St) en solution aqueuse de cyclodextrine sera : [formula]
(§7) So = solubilité intrinsèque du médicament; [CD]1 = concentration totale en cyclodextrine dans le milieu aqueux
(§8) Une parcelle de St rapport [CD] t, selon l'équation (1), donnera une ligne droite avec une pente (K 1:1 So / (1 + K 1:1 So)) et une interception (Sint) égale à So. K 1:1 est calculée à partir de la pente et So : [formula]

[5] = Phase-solubility diagram of ibuprofène with cyclodextrins or soluble polymer fractions; conditions: calculated from slope and So of the solubility diagram
Description: as §4, §5, §6, §7, §8
Afin de pouvoir faire une comparaison directe entre cyclodextrine monomère et cyclodextrine polymérisée, les diagrammes de solubilité sont présentés en fonction de la concentration rapportée en gramme de monomère de cyclodextrine par litre. Tableau 3 : Solubilité de l'ibuprofène et constantes de complexation en présence des cyclodextrines ou de fractions solubles de polymères de cyclodextrine à 10 et 50 g/L en cyclodextrine. L'utilisation de cyclodextrines sous forme de monomères ne tombe pas sous l'étendue de la protection revendiquée.

| Molecule | Constante de complexation K1:1 [5] [M⁻¹] | also measured |
| --- | --- | --- |
| CC(C)Cc1ccc(C(C)C(=O)O)cc1 (stereo not shown) [ibuprofène, acide 2-[4-isobutylphényl]propanoique] | – | dissolution du principe actif [1]: 15% |
| CN1C(C(=O)Nc2ccccn2)=C(O)c2ccccc2S1(=O)=O [piroxicam, 1,1-dioxydede 4-hydroxy-2-méthyl-N-(2-pyridinyl)-2H-1,2-benzothiazine-3-carboxamide] | – | libération du piroxicam [2]: 10%; Tg (saut de chaleur spécifique) [3]: 65 °C |
| OC[C@H]1O[C@@H]2O[C@H]3[C@H](O)[C@@H](O)[C@@H](O[C@H]4[C@H](O)[C@@H](O)[C@@H](O[C@H]5[C@H](O)[C@@H](O)[C@@H](O[C@H]6[C@H](O)[C@@H](O)[C@@H](O[C@H]7[C@H](O)[C@@H](O)[C@@H](O[C@H]8[C@H](O)[C@@H](O)[C@@H](O[C@H]9[C@H](O)[C@@H](O)[C@@H](O[C@H]1[C@H](O)[C@H]2O)O[C@@H]9CO)O[C@@H]8CO)O[C@@H]7CO)O[C@@H]6CO)O[C@@H]5CO)O[C@@H]4CO)O[C@@H]3CO [γCD, γ-cyclodextrine] | 1 | Constante de complexation K1:1 [4]: 890 M⁻¹ |
| hydroxypropyl-β-cyclodextrine [HPβCD1] | 17 | – |
| hydroxypropyl-β-cyclodextrine [HPβCD2] | 45 | Constante de complexation K1:1 [4]: 185 M⁻¹ |
| hydroxypropyl-γ-cyclodextrine [HPγCD] | 11 | – |
| méthyl-β-cyclodextrine [MeβCD] | 33 | – |
